Results from patent US20260055079A1, “PHTHALAZINONE COMPOUNDS AS PARP7 INHIBITORS” (AZKARRA THERAPEUTICS, INC., priority 2022, published 2026).
Read-outs that look alike come from different tables or passages of the source.

How the values were obtained:
[1] = test system: AHR target gene CYP1A1; assay: CYP1A1 mRNA (AHR target gene) by RT-qPCR in MEFs; type: cell-based, mouse; conditions: WT MEFs
[2] = molecular target: PARP4bc (Homo sapiens, UniProt Q9UKK3); assay: PASTA biochemical PARP screening assay, PARP4bc
[3] = molecular target: GST-tagged PARP7 (Homo sapiens (Human), UniProt Q7Z3E1); assay: PASTA biochemical PARP screening assay, PARP7
Method: GST-tagged PARP7 was expressed and purified as previously described (Hutin et al., 2018). Proteins were quantified by an in-gel standard curve of Bovine Serum Albumin (Bio-Rad). For PARP7, 250 ng of PARP7 was adhered to glutathione coated 96-well plates (Thermo Scientific) in PBR for 60 min at RT. […] After washing, varying concentrations of each inhibitor was pre-incubated with 20 μM (2×) 6-a-NAD^+. The solution was added to the plate, diluted to 1× in PBR, and incubated at 30° C. for 60 min. […] The plate was subsequently washed three times in PBST and once in PBS before incubation with Strep-HRP (300 ng/μl BSA, 0.05 ng/μl Strep-HRP (Jackson ImmunoResearch), 1×PBS) for 30 min at RT. The plate was washed three time in PBST and once in PBS before development with QuantaRed Enhanced Chemifluorescent HRP Substrate as described previously.

[4] = molecular target: PARP10 (Homo sapiens (Human), UniProt Q53GL7); assay: PASTA biochemical PARP screening assay, PARP10
[5] = molecular target: GFP-PARP7 (Homo sapiens (Human), UniProt Q7Z3E1); assay: PARP7 MARylation in GFP-PARP7 expressing HEK 293T cells (western blot); type: cell-based; conditions: read-out: EC50, decrease in PARP7 MARylation
[6] = test system: HARA (human lung squamous cell carcinoma) cells; assay: Cell proliferation assay (CellTiter-Glo), HARA; type: cell-based; conditions: Homo sapiens, 144 h; 6 days, CellTiter-Glo; read-out: HARA GI50
[7] = molecular target: PARP12cat (Homo sapiens (Human), UniProt Q9H0J9); assay: PASTA biochemical PARP screening assay, PARP12cat
[8] = molecular target: PARP1 (Homo sapiens (Human), UniProt P09874); assay: PASTA biochemical PARP screening assay, PARP1
[9] = molecular target: T1, PARP2 (Homo sapiens (Human), UniProt Q9UGN5); assay: PASTA biochemical PARP screening assay, PARP2
[10] = test system: NCI-H1373 cells; assay: Cell Titer-Glo viability, NCI-H1373; type: cell-based
Method: NCI-H1373 cells were seeded in a white 96-well plate (Corning) at a density of 1,000 cells per well. After 24 hours, cells were treated with PARP7 inhibitors and incubated at 37° C. for 6 days. Cell viability was assessed using CellTiter-Glo (CTG) 2.0 (Promega). After addition of the CTG reagent (following manufacturer protocol), the plate was incubated on an orbital shaker for 15 min (protected from light) at room temperature. Chemiluminescence was measured on a Spectra Max i3 (Molecular Devices), normalized to DMSO-treated wells, and IC50 values were calculated by non-linear regression (three-parameter fit) analysis using Prism 9 (GraphPad).

[11] = molecular target: PARP16 (Homo sapiens (Human), UniProt Q8N5Y8); assay: PASTA biochemical PARP screening assay, PARP16
[12] = molecular target: PARP8 (Homo sapiens (Human), UniProt Q8N3A8); assay: PASTA biochemical PARP screening assay, PARP8
[13] = molecular target: PARP3 (Homo sapiens (Human), UniProt Q9Y6F1); assay: PASTA biochemical PARP screening assay, PARP3
Method: For PARP3, PARP4bc, and PARP16, 200-350 ng of PARP was directly adhered to nickel coated 96-well plates for 60 min at 25° C. in PBR PARP3 was activated by Dnick 5'P as previously described (Langelier, Marie-France et al. Nucleic acids research vol. 42, 12 (2014): 7762-75.). The plate was washed three times with PBST, once with PBS, and once with PBR. Varying concentrations of inhibitor were pre-incubated with NAD^+ and added to the plate (final NAD^+ concentration: 100 μM for PARP3, PARP4bc; 400 μM for PARP16). The plate was incubated at 30° C. for 60 min, then washed three times with PBST before blocking with 5% Milk in PBST. […] The plate was then washed three times with PBST and once with PBS before developing as described previously.

[14] = molecular target: PARP14wwe (Homo sapiens, UniProt Q460N5); assay: PASTA biochemical PARP screening assay, PARP14wwe
[15] = molecular target: T1, PARP2; assay: PARP2 biochemical assay; conditions: read-out: PARP2 IC50
[16] = molecular target: PARP11 (Homo sapiens (Human), UniProt Q9NR21); assay: PASTA biochemical PARP screening assay, PARP11
[17] = test system: CT26 (mouse colon adenocarcinoma) cells; assay: Cell proliferation assay (CellTiter-Glo), CT26; type: cell-based; conditions: Mus musculus, CT26, 144 h, 6 days
[18] = molecular target: PARP15cat (Homo sapiens (Human), UniProt Q460N3); assay: PASTA biochemical PARP screening assay, PARP15cat
[19] = test system: NCI-H1373 (human lung adenocarcinoma) cells; assay: Cell proliferation assay (CellTiter-Glo), NCI-H1373; type: cell-based; conditions: Homo sapiens, NCI-H1373, 144 h; 6 days, CellTiter-Glo; read-out: NCI-H1373 GI50
[20] = molecular target: PARP6 (Homo sapiens (Human), UniProt Q2NL67); assay: PASTA biochemical PARP screening assay, PARP6
[21] = test system: IFN-β mRNA; assay: IFN-β mRNA by RT-qPCR in MEFs; type: cell-based, mouse; conditions: 100 nM alone
[22] = test system: AHR ligand-mediated gene transcription; assay: CYP1A1 mRNA by qPCR in mouse embryonic fibroblasts; type: cell-based; conditions: MEFs, with or without AHR agonist TCDD
Method: FIG. 2A provides CYP1A1 mRNA levels assessed by qPCR after treatment of wild type (WT) MEFs with increasing concentrations of Example 10 in the presence (gray bars) or absence (black bars) of the AHR agonist TCDD (1 nM). FIG. 2B provides the same as in FIG. 2A except with PARP7^−/− MEFs. FIG. 2C provides CYP1A1 mRNA levels assessed by qPCR after treatment of wild type (WT) MEFs with increasing concentrations of TCDD in the presence (gray bars) or absence (black bars) of 100 nM Example 10. FIG. 2D provides the same as in FIG. 2C, except with PARP7−/− MEFs.

Sequence of GST-tagged PARP7 (Q7Z3E1 whole entry): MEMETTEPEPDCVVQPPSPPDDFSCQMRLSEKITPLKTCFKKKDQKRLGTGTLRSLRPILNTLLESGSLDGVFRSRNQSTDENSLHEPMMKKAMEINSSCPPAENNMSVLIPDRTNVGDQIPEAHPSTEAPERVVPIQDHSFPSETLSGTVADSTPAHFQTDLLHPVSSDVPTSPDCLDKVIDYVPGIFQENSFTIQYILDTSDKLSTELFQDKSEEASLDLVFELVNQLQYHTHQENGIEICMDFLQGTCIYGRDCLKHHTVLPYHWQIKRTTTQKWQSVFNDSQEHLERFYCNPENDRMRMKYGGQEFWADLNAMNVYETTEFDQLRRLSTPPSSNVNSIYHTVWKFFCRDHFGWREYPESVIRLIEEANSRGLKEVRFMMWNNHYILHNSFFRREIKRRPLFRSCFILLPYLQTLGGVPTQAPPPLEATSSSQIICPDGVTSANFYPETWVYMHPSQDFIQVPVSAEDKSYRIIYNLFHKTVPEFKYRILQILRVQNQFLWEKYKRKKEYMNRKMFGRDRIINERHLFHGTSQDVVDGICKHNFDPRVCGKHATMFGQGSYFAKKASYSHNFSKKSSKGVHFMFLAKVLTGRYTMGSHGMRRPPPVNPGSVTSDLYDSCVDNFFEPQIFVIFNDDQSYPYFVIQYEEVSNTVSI
Sequence of PARP1 (P09874 whole entry, species assumed): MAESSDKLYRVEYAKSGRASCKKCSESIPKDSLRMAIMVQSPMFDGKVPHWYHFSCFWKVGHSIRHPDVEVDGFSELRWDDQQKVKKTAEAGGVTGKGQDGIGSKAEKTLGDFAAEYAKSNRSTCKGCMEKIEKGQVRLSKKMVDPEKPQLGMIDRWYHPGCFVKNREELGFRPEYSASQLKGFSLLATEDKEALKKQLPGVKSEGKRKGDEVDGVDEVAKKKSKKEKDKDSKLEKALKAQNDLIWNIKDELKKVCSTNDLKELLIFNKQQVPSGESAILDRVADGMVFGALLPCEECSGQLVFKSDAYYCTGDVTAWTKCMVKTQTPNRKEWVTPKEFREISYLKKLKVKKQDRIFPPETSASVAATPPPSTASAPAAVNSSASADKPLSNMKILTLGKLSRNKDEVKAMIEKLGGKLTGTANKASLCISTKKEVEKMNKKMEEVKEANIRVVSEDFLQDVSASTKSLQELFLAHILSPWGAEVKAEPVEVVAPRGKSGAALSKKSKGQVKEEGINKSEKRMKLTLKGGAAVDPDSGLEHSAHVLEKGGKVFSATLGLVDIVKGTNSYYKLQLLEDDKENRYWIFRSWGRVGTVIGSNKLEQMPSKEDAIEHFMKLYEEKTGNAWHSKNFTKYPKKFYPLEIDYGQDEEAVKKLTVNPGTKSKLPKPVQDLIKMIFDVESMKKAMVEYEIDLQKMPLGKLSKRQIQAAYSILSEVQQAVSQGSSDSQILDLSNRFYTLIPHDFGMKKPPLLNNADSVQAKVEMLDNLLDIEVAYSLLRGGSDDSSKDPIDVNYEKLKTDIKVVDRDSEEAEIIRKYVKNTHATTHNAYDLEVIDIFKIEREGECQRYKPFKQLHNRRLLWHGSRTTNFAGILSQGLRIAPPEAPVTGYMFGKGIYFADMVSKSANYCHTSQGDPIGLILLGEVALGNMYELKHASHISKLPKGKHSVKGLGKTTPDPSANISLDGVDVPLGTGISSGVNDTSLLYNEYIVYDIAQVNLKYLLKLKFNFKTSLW
T1 sequence (Q9UGN5 whole entry): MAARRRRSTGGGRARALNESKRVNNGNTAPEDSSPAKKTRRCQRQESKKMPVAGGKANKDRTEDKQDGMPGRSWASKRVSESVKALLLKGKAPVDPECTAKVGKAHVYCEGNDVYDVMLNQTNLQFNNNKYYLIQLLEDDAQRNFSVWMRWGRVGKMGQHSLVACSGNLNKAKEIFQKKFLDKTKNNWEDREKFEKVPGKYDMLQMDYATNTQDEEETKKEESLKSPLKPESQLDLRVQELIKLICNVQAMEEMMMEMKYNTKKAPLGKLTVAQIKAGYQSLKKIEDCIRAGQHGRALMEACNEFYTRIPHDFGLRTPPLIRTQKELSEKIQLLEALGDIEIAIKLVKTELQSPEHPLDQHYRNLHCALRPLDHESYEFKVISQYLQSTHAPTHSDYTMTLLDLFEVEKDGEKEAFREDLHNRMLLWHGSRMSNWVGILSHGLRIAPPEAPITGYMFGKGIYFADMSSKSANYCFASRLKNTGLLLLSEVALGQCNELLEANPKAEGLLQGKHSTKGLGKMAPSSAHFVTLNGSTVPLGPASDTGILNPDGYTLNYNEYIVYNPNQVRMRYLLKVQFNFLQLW
Sequence of PARP14wwe (Q460N5 whole entry, looked up): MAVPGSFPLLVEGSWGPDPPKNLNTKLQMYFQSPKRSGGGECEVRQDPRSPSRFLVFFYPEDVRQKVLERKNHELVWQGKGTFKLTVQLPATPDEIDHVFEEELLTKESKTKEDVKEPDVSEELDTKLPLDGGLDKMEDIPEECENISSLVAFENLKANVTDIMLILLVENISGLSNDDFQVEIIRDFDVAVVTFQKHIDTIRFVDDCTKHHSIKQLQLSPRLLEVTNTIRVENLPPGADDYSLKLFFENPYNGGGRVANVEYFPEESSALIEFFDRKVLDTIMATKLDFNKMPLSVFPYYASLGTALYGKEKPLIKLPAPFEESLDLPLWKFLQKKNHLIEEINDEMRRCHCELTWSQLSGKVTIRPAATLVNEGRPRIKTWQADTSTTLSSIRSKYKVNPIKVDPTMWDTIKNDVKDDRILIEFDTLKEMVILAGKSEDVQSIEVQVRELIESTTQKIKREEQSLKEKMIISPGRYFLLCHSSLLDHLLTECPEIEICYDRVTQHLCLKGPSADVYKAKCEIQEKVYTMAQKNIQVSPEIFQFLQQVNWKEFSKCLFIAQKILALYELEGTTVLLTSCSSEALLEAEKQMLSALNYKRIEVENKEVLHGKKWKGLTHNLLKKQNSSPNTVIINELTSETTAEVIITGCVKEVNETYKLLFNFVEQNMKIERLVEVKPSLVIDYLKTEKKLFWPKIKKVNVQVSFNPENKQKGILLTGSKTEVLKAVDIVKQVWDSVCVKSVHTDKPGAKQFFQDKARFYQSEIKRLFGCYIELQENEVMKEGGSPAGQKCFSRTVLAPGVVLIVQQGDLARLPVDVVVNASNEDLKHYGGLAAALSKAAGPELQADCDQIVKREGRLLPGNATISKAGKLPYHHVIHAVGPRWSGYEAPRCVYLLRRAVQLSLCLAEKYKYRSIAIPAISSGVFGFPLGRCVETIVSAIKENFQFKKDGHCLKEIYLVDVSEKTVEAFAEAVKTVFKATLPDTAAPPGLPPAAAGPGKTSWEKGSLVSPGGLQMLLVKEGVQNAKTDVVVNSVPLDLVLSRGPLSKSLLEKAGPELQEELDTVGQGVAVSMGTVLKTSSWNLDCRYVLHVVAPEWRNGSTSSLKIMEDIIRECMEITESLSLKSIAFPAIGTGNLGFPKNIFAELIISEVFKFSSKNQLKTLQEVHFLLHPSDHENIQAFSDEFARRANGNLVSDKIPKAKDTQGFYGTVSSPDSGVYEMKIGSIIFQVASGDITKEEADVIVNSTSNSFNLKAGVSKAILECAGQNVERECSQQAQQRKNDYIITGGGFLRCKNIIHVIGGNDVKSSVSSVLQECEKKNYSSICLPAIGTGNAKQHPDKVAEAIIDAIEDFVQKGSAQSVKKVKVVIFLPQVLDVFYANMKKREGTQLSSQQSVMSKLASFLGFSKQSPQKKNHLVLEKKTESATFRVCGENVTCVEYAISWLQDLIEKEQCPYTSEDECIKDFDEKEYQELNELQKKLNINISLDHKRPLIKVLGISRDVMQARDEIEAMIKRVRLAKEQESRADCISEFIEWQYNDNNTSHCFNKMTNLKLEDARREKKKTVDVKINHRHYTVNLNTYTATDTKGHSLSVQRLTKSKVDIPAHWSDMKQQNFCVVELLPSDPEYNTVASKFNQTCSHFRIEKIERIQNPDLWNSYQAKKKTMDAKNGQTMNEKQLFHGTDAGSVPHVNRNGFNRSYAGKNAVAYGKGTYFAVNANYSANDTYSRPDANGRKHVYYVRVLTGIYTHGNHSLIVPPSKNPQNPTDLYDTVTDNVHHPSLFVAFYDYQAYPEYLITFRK
Sequence of GFP-PARP7 (Q7Z3E1 whole entry): as the sequence (Q7Z3E1 whole entry) above
Sequence of PARP10 (Q53GL7 whole entry, species assumed): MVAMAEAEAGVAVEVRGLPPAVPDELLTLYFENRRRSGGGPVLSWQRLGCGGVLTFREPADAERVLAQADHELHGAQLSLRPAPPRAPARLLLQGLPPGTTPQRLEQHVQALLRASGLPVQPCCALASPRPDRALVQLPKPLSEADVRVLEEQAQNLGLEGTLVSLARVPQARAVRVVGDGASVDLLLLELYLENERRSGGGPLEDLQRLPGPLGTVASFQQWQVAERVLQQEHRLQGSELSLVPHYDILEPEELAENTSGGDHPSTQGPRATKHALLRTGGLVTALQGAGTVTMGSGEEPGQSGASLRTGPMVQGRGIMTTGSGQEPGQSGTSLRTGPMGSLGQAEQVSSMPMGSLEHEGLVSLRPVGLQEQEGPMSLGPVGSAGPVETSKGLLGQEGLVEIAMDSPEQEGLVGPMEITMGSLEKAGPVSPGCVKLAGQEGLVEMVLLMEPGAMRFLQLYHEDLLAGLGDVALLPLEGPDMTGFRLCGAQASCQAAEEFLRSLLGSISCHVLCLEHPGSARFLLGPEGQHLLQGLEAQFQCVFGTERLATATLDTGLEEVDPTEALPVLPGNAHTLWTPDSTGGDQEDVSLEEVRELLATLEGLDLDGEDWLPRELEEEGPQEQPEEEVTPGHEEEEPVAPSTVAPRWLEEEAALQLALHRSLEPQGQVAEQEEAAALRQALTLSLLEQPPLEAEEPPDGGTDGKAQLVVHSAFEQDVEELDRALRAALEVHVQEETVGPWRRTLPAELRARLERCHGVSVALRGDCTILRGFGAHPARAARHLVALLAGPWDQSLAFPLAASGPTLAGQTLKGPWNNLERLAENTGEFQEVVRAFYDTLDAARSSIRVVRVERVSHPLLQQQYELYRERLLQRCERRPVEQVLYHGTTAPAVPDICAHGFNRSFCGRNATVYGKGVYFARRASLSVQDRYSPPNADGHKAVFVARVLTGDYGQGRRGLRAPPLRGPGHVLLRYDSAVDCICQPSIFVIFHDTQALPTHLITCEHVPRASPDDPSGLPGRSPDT

## CC#Cc1ccc2c(=O)[nH]nc(Cc3ccc(F)c(C(=O)N4CCN(c5ccc(C#N)cn5)CC4)c3)c2c1 [Example 10, 6-(4-(2-Fluoro-5-((4-oxo-7-(prop-1-ynyl)-3,4-dihydrophthalazin-1-yl)methyl)benzoyl)piperazin-1-yl)nicotinonitrile]
[1]; in the absence of TCDD
  CYP1A1 mRNA levels: had no effect on CYP1A1 mRNA levels
[1]; in the presence of 1 nM TCDD
  CYP1A1 mRNA levels: dramatically increased CYP1A1 mRNA levels
[2]
  IC50: > 3000 nM
[3]
  IC50: 13.7 nM
  selectivity for PARP7 over PARP2: ~75 fold
  selectivity for PARP7 over PARP10 and PARP11: ~10 fold
  selectivity for PARP7 over most PARP family members beyond PARP1 and PARP2: > 50 fold
[4]
  IC50: 179 nM
[5]
  EC50: 8 nM
[6]
  GI50: 1000 to 5000 nM
[7]
  IC50: 762 nM
[8]; read-out: IC50 PARP1
  IC50: > 3000 nM
[8]; read-out: does not inhibit PARP1 up to
  IC50: > 3000 nM
[9]
  IC50: 1020 nM
[10]
  less potent than RBN-2397 on NCI-H1373: ~6 fold
[10]; Homo sapiens, NCI-H1373, 144 h, 6 days, CellTiter-Glo
  EC50: 104 nM
[11]
  IC50: 1060 nM
[12]
  IC50: > 3000 nM
[13]
  IC50: > 3000 nM
[14]
  IC50: 1040 nM
[15]
  IC50: 100 to 500 nM
[16]
  IC50: 134 nM
[17]
  GI50: > 5000 nM
[18]
  IC50: 770 nM
[19]
  GI50: < 100 nM
[20]
  IC50: 775 nM
[21]
  increase in IFN-β mRNA: 3 fold
[22]
  AHR ligand-mediated gene transcription (CYP1A1 mRNA): derepresses AHR ligand-mediated gene transcription
